Patent publication US7884136B2, “Modified-release formulations of a bupropion salt” (Biovail Laboratories International S.R.L., priority 2005, dated 2011)

Key:
[1] = Accelerated stability study of bupropion HBr, closed bottles, 40° C./75% RH, 3 and 6 months, HPLC; type: physicochemical; conditions: 40° C./75% RH
Experimental: The samples were prepared in closed bottles and placed in the stability chamber. HPLC analysis was conducted on the samples prior to placing them in the stability chamber (time 0), and after 3 months and 6 months. The amounts of the main degradation products present at time 0 were compared with those amounts present after 3 months and 6 months. […] For each sample tested, at each time period, two different HPLC assays were run. The first assay labelled chromatographic purity A, measured the percentage of three impurities 3′chloropropiophenone, 3′-Chloro-2-bromopropiophenone and 3′-Chlorobenzoic acid. The second assay, labelled chromatographic purity B, measured the percentage of 2-N-(tert-Butyl)-aminopropiophenone, a single unknown impurity and the total unknown impurities.

[2] = Shelf life stability program of bupropion HBr, 25° C./60% RH, 3 and 6 months, HPLC; type: physicochemical; conditions: 25° C./60% RH, 3 and 6 months
Experimental: The stability of bupropion HBr was studied over a longer term under conditions meant to approximate standard storage or shelf conditions. Samples were prepared in closed containers and subjected to long-term storage at 25° C.+2° C. and 60%+5% RH in a stability chamber. The samples were analyzed by HPLC prior to being placed in the stability chamber (time 0) and after 3 months and 6 months. The amounts of the main degradation products present at time 0 were compared with the amounts present at 3 months and 6 months. As shown in Table 77-79 three different batches of bupropion HBr were tested. As in Example 10 each sample was tested under two HPLC assay conditions to identify 6 impurities or groups of impurities as described in Example 10.

SMILES: Br.CC(NC(C)(C)C)C(=O)c1cccc(Cl)c1 (centres unmarked) [Bupropion HBr, bupropion hydrobromide]
- Total percentage of impurities, change ([1]; 3-month and 6-month): did not change
- Impurity 3′-chloropropiophenone, trend ([1]; 3 and 6 months, three batches): slight increase
- Stability under the accelerated stability test conditions ([1]; 6 months): highly stable
- Other impurities, trend [2]: did not show an increasing trend over time
- Impurity 3′-chloropropiophenone, trend ([2]; three batches): increased slightly over time
